By GI50 is commonly meant the concentration giving 50% growth inhibition. A higher GI50 goes with less potent growth inhibition.

The values that follow come from PMC8400120, “Synthesis of Novel Methyl 7-[(Hetero)arylamino]thieno[2,3-b]pyrazine-6-carboxylates and Antitumor Activity Evaluation: Effects in Human Tumor Cells Growth, Cell Cycle Analysis, Apoptosis and Toxicity in Non-Tumor Cells” (Molecules, 2021).

Bounds are passed on as bounds.

For data set [1], the system named is gastric adenocarcinoma (AGS). The experiment in a line: SRB cell growth inhibition assay, AGS. The format is cell-based, human. The note with it: for GI50: AGS, SRB assay, 48 h incubation, mean ± SD. The method, then: (§1) The antitumor potential of the di(hetero)arylamines 2a–2o was evaluated using the sulforhodamine B (SRB) assay to establish some structure–activity relationships. Four human tumor cell lines (acquired from Leibniz-Institut DSMZ) were used: gastric adenocarcinoma (AGS), colorectal adenocarcinoma (CaCo-2), breast adenocarcinoma (MCF7), and non-small-cell lung cancer (NCI-H460), as well as a non-tumor cell line from African green monkey kidney (Vero) to evaluate the toxicity of the compounds. Ellipticine was used as a positive control, and the results are presented in GI50 values (µM) (Table 2).
(§2) Each cell line was prepared in 96-well plates, at the required density (1.0 × 10^4 cells/well) and incubated for 24 h to achieve cell attachment. The solutions of the compounds were applied and incubated for another 48 h. GI50 values (µM) corresponding to the compound concentration that inhibited 50% of cell growth were determined using the sulforhodamine B assay. Two separate tests were carried out for each compound, in duplicate, with the effects expressed as mean values and standard deviation (SD). Ellipticine was used as a positive control.
(In general: In SRB staining, fixed cells bind dye roughly in proportion to their protein.)

Data set [2] concerns colorectal adenocarcinoma (CaCo-2). Nature of the data set: SRB cell growth inhibition assay, CaCo-2. The format is cell-based, human. The settings on record: CaCo-2, SRB assay, 48 h incubation, mean ± SD. The method, then: as §1, §2
For data set [3], the system named is breast carcinoma (MCF7). The experiment in a line: SRB cell growth inhibition assay, MCF7. The note with it: Homo sapiens, MCF7, 48 h, MCF-7, SRB assay, 48 h incubation, mean ± SD. Type of data set: cell-based, human. The method, then: as §1, §2
Data set [4] deals with non-small-cell lung carcinoma (NCI-H460). Nature of the data set: SRB cell growth inhibition assay, NCI-H460. The format is cell-based, human. The settings on record: Homo sapiens, NCI-H460, 48 h, 48 h incubation, mean ± SD. The method, then:
as §1, §2

Data set [5] in a line: SRB cell growth inhibition assay, non-tumor Vero cells (toxicity). The note with it: African green monkey, Vero cells (non-tumor kidney cell line), 48 h incubation, mean ± SD. The format is cell-based. The method, then: as §1, §2
Data set [6] relates to AGS cells. The experiment in a line: Flow cytometric cell cycle analysis (PI staining). The settings on record: at GI50 concentration, 72 h, vs blank. The format is cell-based, human. The method, then: This assay is based on the measurement of the DNA content in the PI-labeled nuclei. […] Cell cycle analysis was performed using propidium iodide (PI) staining and flow cytometry. This assay is established on the measurement of the DNA content of nuclei labeled with PI. Following this, the cells were staining according to the protocol PI/RNASE Solution (Immunostep, Spain, Salamanca). The harvested cells corresponding to 2 × 10^5 to 1 × 10^6 cells, were centrifuged for 5 min at 300g, and the supernatant was removed. The cells were fixed and added to 200 µL of 70% ethanol and left in the ethanol at 4 °C for 30 min. Following this, the cells were washed once in 2 mL phosphate-buffered saline (PBS) and centrifuged for 5 min at 300g and resuspended in 500 μL of PI solution (PI/RNASE) and incubated in the dark, at room temperature, for 15 min. Cell cycle phase distribution was evaluated using an Accuri C6 flow cytometer (BD Biosciences, San Jose, CA, USA). The DNA content of at least 20,000 cells was counted per sample, and the percentage of cells in different phases (G0/G1, S, and G2/M phases) of the cell cycle was evaluated using BD Accuri C6 software (BD Biosciences, San Jose, CA, USA). Ellipticine was used as a positive control at its GI50 concentration for AGS cell line.
A general note: Flow cytometry measures light scatter and fluorescence of single cells or particles in a stream.

Data set [7] concerns AGS cells. Nature of the data set: Flow cytometric apoptosis detection (FITC Annexin V/PI). Type of data set: cell-based, human. The settings on record: at GI50 concentration, 72 h; for Cell death in apoptosis assay: vs blank. The method, then: Apoptosis induction was performed using the Fluorescein Isothiocyanate (FITC) Annexin V Apoptosis Kit (BD Biosciences, San Jose, CA, USA), and measured by flow cytometry for compounds 2b, 2f, and 2g (Figure 3). FITC Annexin V staining was used to determine the percentage of cells within a population that are actively undergoing apoptosis. […] Apoptosis detection was performed using the Fluorescein Isothiocyanate (FITC) Annexin V Apoptosis Kit (BD Biosciences, San Jose, CA, USA) and flow cytometry. FITC Annexin V staining is used to determine the percentage of cells within a population that are actively undergoing apoptosis. The cells were washed twice with PBS and resuspended cells in 1× Binding Buffer (10 mM HEPES/NaOH, pH 7.4, 140 mM NaCl, 2.5 mM CaCl2) at a concentration of 1 × 10^6 cells/mL. Following this, 100 μL of the solution (1 × 10^5 cells) was transferred to a 5 mL culture tube and 5 μL of FITC Annexin V (BD Biosciences, San Jose, CA, USA) and 5 μL of PI (BD Biosciences, San Jose, CA, USA) were added to each tube, and they were incubated in the dark, at room temperature, for 15 min. Finally, 400 μL of 1× Binding Buffer was added to each tube. Next, 30,000 cells were acquired using an Accuri C6 flow cytometer (BD Biosciences, San Jose, CA, USA), and the percentage of cell distribution was evaluated with Accuri C6 software (BD Biosciences, San Jose, CA, USA). Ellipticine was used as a positive control at its GI50 concentration for AGS cell line.

For the compound `COC(=O)c1sc2nccnc2c1Nc1ccc(OC)c(OC)c1` [2f, Methyl 7-[(3,4-Dimethoxyphenyl)amino]thieno[2,3-b]pyrazine-6-carboxylate], the GI50 in data set [1] is 9.2 ± 0.2 µM; in data set [1] (Homo sapiens, 48 h) it was less than 10 µM; in data set [2], 8 ± 1 µM; in data set [2] (Homo sapiens, Caco-2, 48 h) it was less than 10 µM; in data set [3], 87 ± 1 µM; in data set [4] it was 41 ± 3 µM. Moreover, in data set [5], the GI50 at 48 h worked out at 53 ± 3 µM. The “Effect on G0/G1 phases of AGS cell cycle” value in data set [6] is recorded as “cell cycle arrest in G0/G1 phases, although this result was not statistically significant”. In addition, the “Effect on G2/M phase of AGS cell cycle” value in data set [6] was “did not present any difference in the percentage of cells compared to the blank”. In addition, in data set [7], the “High number of cells in apoptosis (expected from GI50 values)” value is “not verified”. Besides, the “Cell death in apoptosis assay” value in data set [7] is “moderated cell death compared to the blank”.
For `COC(=O)c1sc2nccnc2c1Nc1ccccc1OC` [2b, Methyl 7-[(2-Methoxyphenyl)amino]thieno[2,3-b]pyrazine-6-carboxylate], the GI50 in data set [1] (Homo sapiens, 48 h) is 9.8 ± 0.2 µM; in data set [2] (Homo sapiens, Caco-2, 48 h), 36 ± 2 µM; in data set [3] it was 127 ± 9 µM; in data set [4], 45 ± 1 µM. Further, the “Selectivity for AGS among the cell lines used” value in data set [1] (comparison of GI50 values) is reported as “selective for this cell line”. Moreover, the GI50 at 48 h in data set [5] was found to be 21.29 ± 0.03 µM. In addition, the “Effect on G0/G1 phases of AGS cell cycle” value in data set [6] is on record as “cell cycle arrest in G0/G1 phases, although this result was not statistically significant”. In data set [6], the “Effect on G2/M phase of AGS cell cycle” value is given as “did not present any difference in the percentage of cells compared to the blank”. Further, the “High number of cells in apoptosis (expected from GI50 values)” value in data set [7] is “not verified”. Besides, in data set [7], the “Cell death in apoptosis assay” value is given as “moderated cell death compared to the blank”.
